Like-named read-outs stand apart in the source and are kept apart here.
Key:
Assay type in all cases: cell-based
MDA-MB-231 = assay: MTT cell viability, MDA-MB-231; set-up: key to SI MDA-MB-231: NS: the compound was more active in the non-tumor cell line; details: for IC50: Homo sapiens, MDA-MB-231, 48 h, MTT; for SI MDA-MB-231: IC50 MCF10A / IC50 MDA-MB-231
Description: (§1) Four different breast cells lines were used in this study: MCF-10A (non-tumorigenic), MCF7 (ER+ BC), MDA-MB453 (HER2+ BC) and MDA-MB231 (TNBC). All lineages were obtained from the American Type Culture Collection (ATCC; Manassas, VA, USA) and maintained at a temperature of 37 °C according to the supplier’s recommendations. Only MDA-MB231 cells were not kept in an atmosphere of 5% CO2. MCF-10A was grown in Dulbecco’s Modified Eagle’s Medium (DMEM F12, Gibco, ThermoFisher Scientific, Waltham, MA, USA) supplemented with 20 ng/mL epidermal growth factor (Gibco, ThermoFisher Scientific, Waltham, MA, USA), 0.5 μg/mL hydrocortisone (Sigma-Aldrich, Sigma-Aldrich, St. Louis, MO, USA) and 10 μg/mL insulin (Gibco, ThermoFisher Scientific, Waltham, MA, USA). MCF7 was cultivated in Roswell Park Memorial Institute Medium (RPMI-1640, Gibco, ThermoFisher Scientific, Waltham, MA, USA), MDA-MB453 in IMDM and MDA-MB231 in Leibovitz’s medium (L-15, Gibco, ThermoFisher Scientific, Waltham, MA, USA). All media were supplemented with 10% fetal bovine serum (FBS, Gibco, ThermoFisher Scientific, Waltham, MA, USA) and 50 µg/mL of gentamicin (Cultilab, Campinas, SP, Brazil). The cells were confirmed to be free of mycoplasma and passaged using a 0.25% trypsin-EDTA solution when confluency reached 80–90%.
(§2) Cell viability was determined by spectrophotometric quantification of MTT (3-[4,5-dimethyl-thiazol-2-yl]-2,5-diphenyltetrazolium bromide—Invitrogen. Waltham, MA, USA) reduction to formazan crystals. Cells were seeded at the density of 1 × 10^4 cells/well (MCF-10A, MDA-MB453), 1.5 × 10^4 cells/well (MDA-MB231) and 3 × 10^3 cells/well (MCF7) in 96-well culture dishes and incubated with different concentrations of the compounds (1.25, 2.5, 5, 10, 20, 40, 80 and 160 µM) for 48 h. The medium was than replaced by MTT solution (0.5 mg/mL) and plates were kept at 37 °C for 4 h. After the aspiration of the media, the formazan crystals were diluted with 100 μL of dimethyl-sulfoxide (DMSO)/well and the absorbance at 570 nm was measured using a spectrophotometer (Thermo Plate TP-Reader, Waltham, MA, USA). Cytotoxicity was calculated using the following formula: Cytotoxicity (%) = [absorbance of cells treated with the compounds/absorbance of cells treated with DMSO) × 100]. The IC50 was determined for each compound and was defined as the concentration required to inhibit 50% of cell growth, compared to the control sample (cells treated with DMSO 0.05%).
(§3) Data were presented as the mean ± standard deviation (SD) and analyzed using GraphPad Prism 9.0 software (GraphPad Software Inc., La Jolla, CA, USA). All data were assayed in triplicate. Statistical analysis was performed using one-way ANOVA, Tukey´s HSD post hoc test and Student’s t-test. The IC50 was calculated using non-linear regression and the selectivity index (SI) was calculated by the ratio between the IC50 values corresponding to the non-tumor cell lineage (MCF-10A) and the IC50 values corresponding to the BC cell lines. Statistical significance was accepted at p values < 0.05.

MDA-MB-453 = assay: MTT cell viability, MDA-MB-453; set-up: key to SI MDA-MB-453: NS: the compound was more active in the non-tumor cell line; details: for IC50: Homo sapiens, MDA-MB-453, 48 h, MTT; for SI MDA-MB-453: IC50 MCF10A / IC50 MDA-MB-453
Description: as §1, §2, §3

MCF7 = assay: MTT cell viability, MCF7; set-up: key to SI MCF7: NS: the compound was more active in the non-tumor cell line; details: for IC50: Homo sapiens, MCF7, 48 h, MTT; for SI MCF7: IC50 MCF10A / IC50 MCF7
Description: as §1, §2, §3

[1] = test system: tumor cells MCF7, MDA-MB-453 and MDA-MB-231; assay: MTT cell viability, tumor cells (stated collectively); details: for IC50: 48 h, MTT, tumor cells stated collectively
Description: as §1, §2, §3

MCF-10A = assay: MTT cell viability, non-tumor cell line MCF-10A; details: 48 h; for Cytotoxicity to the MCF-10A cell line (in words): up to 160 μM; for IC50: Homo sapiens, MCF-10A
Description: as §1, §2, §3

[2] = 1.25–160 μM, read-out: IC50 MDA-MB-231
[3] = 1.25–160 μM, read-out: IC50 MDA-MB-453
[4] = 1.25–160 μM, read-out: IC50 MCF7
[5] = 1.25–160 μM, read-out: IC50 MCF-10A
[6] = read-out: IC50 MD-AMB 231 (Table S1)
[7] = read-out: IC50 MD-AMB 453 (Table S1)
[8] = read-out: IC50 MCF-10A (Table S1)

IC50 [1] | Structure (SMILES) | IC50 (MDA-MB-231; [2]) | SI MDA-MB-231 (MDA-MB-231) | IC50 (MDA-MB-453; [3]) | IC50 (MCF7; [4]) | Cytotoxicity to the MCF-10A cell line (in words) (MCF-10A) | IC50 (MCF-10A; [5]) | SI MDA-MB-453 (MDA-MB-453) | SI MCF7 (MCF7) | Selectivity for tumor cells over MCF-10A (in words) [1] | IC50 (MDA-MB-231; [6]) | IC50 (MDA-MB-453; [7]) | IC50 (MCF7; read-out: IC50 MCF7 (Table S1)) | IC50 (MCF-10A; [8])
> 50 µM | N#Cc1ccc(C(=O)N2CCN(S(=O)(=O)c3ccc(Cl)cc3)CC2)cc1 [Compound 1] | 84.9 µM | >1.88 | > 160 µM | > 160 µM | not cytotoxic | > 160 µM |  |  |  |  |  |  | 
 | CN(C)CCOc1ccc(C(=O)N2CCN(S(=O)(=O)c3ccc(Cl)cc3)CC2)cc1 [Compound 2] | 61.3 µM | 1.44 | 50.5 µM | > 160 µM |  | 88.2 µM | 1.75 | NS |  |  |  |  | 
> 50 µM | O=C(c1ccc(Cl)nc1)N1CCN(S(=O)(=O)c2ccc(Cl)cc2)CC1 [Compound 4] | 112 µM | >1.42 | > 160 µM | > 160 µM | not cytotoxic | > 160 µM |  |  |  |  |  |  | 
> 50 µM | CN(C)CCNc1ccc(C(=O)N2CCN(S(=O)(=O)c3ccc(Cl)cc3)CC2)cn1 [Compound 5] | > 160 µM |  | > 160 µM | 82.9 µM | not cytotoxic | > 160 µM |  | >1.93 |  |  |  |  | 
> 50 µM | CCOC(=O)c1ccc(N2CCN(S(=O)(=O)c3ccc(Cl)cc3)CC2)nc1 [Compound 6] | 53.1 µM | >3.01 | > 160 µM | > 160 µM | not cytotoxic | > 160 µM |  |  |  |  |  |  | 
 | O=S(=O)(c1ccc(Cl)cc1)N1CCN(c2ccc(CO)cn2)CC1 [Compound 7] | 107 µM | 0.85 | > 160 µM | > 160 µM |  | 91.2 µM | NS | NS |  |  |  |  | 
 | O=C(c1ccc(N2CCN(S(=O)(=O)c3ccc(Cl)cc3)CC2)nc1)N1CCCC1 [Compound 8] | 135 µM | NS | 92.5 µM | 154 µM |  | 86 µM | NS | NS |  |  |  |  | 
 | CN(C)C(=O)c1ccc(N2CCN(S(=O)(=O)c3ccc(Cl)cc3)CC2)nc1 [Compound 9] | > 160 µM | NS | > 160 µM | > 160 µM |  | 63.9 µM | NS | NS |  |  |  |  | 
< 50 µM | CN(C)Cc1ccc(N2CCN(S(=O)(=O)c3ccc(Cl)cc3)CC2)nc1 [Compound 10] | > 160 µM | NS | 48.4 µM | 62 µM |  | 109 µM | 2.25 | 1.75 |  |  |  |  | 
 | CN(C)Cc1ccc(N2CCN(S(=O)(=O)c3ccc(F)cc3)CC2)nc1 [Compound 11] | > 160 µM |  | 109 µM | 20 µM |  | > 160 µM | >1.47 |  |  |  |  |  | 
< 50 µM | CN(C)CCOc1ccc(N2CCN(S(=O)(=O)c3ccc(Cl)cc3)CC2)cc1 [Compound 12] | > 160 µM | NS | 136 µM | 49.9 µM |  | 68.3 µM | NS | 1.37 | not selective |  |  |  | 
 | O=S(=O)(c1ccc(Cl)cc1)N1CCNCC1 [Compound 13] |  |  |  |  |  |  |  |  |  | > 160 µM | > 160 µM | > 160 µM | > 160 µM
 | Cc1ccc(S(=O)(=O)N2CCN(c3ccc(C(=O)N(C)C)cn3)CC2)cc1 [Compound 14] |  |  |  |  |  |  |  |  |  | > 160 µM | > 160 µM | > 160 µM | > 160 µM
 | CN(C)C(=O)c1ccc(N2CCN(S(=O)(=O)c3ccccc3)CC2)nc1 [Compound 15] |  |  |  |  |  |  |  |  |  | > 160 µM | > 160 µM | > 160 µM | > 160 µM
 | O=C(O)c1ccc(N2CCN(S(=O)(=O)c3ccc(Cl)cc3)CC2)nc1 [Compound 16] |  |  |  |  |  |  |  |  |  | > 160 µM | > 160 µM | > 160 µM | > 160 µM
 | O=C(c1ccc(N2CCN(S(=O)(=O)c3ccc(Cl)cc3)CC2)nc1)N1CCOCC1 [Compound 17] |  |  |  |  |  |  |  |  |  | > 160 µM | > 160 µM | > 160 µM | > 160 µM
 | CN1CCN(C(=O)c2ccc(N3CCN(S(=O)(=O)c4ccc(Cl)cc4)CC3)nc2)CC1 [Compound 18] |  |  |  |  |  |  |  |  |  | > 160 µM | > 160 µM | > 160 µM | > 160 µM
 | O=S(=O)(c1ccc(F)cc1)N1CCN(c2ccccc2)CC1 [Compound 19] |  |  |  |  |  |  |  |  |  | > 160 µM | > 160 µM | > 160 µM | > 160 µM
 | O=S(=O)(c1ccc(Cl)cc1)N1CCN(c2ccc(O)cc2)CC1 [Compound 20] |  |  |  |  |  |  |  |  |  | > 160 µM | > 160 µM | > 160 µM | > 160 µM

Source: paper PMC11433764, “A Novel Compound from the Phenylsulfonylpiperazine Class: Evaluation of In Vitro Activity on Luminal Breast Cancer Cells” (Molecules, 2024)
